pIC50: −log10 of the molar value. Bounds are passed on as bounds.

The assay concerns the target T1, Recombinant Human ENPP-2/Autotaxin (Homo sapiens, UniProt Q13822).
T1 construct: purchased R&D systems 5255-EN
The assay is described as follows: LysoPLD activity measurement (autotaxin enzyme inhibition, choline release, TOOS reagent). The assay is classed as biochemical. Particulars: LysoPLD inhibitory activity; substrate 14:0 LysoPC; absorbance at 555 nm. How it is done: Such a measurement method is a method of measuring the amount of choline, which is a reaction product in an autotaxin enzyme reaction, using a TOOS reagent. Depending on the activity of the autotaxin inhibitor, the amount of choline produced as a reaction product varies, which affects the final absorbance.
After 30 min, 14:0 LysoPC of the substrate diluted to a concentration of 300 μM with the enzyme reaction buffer solution was dispensed into each well by 50 μL and allowed to stand at 37° C. for 90 minutes. At this time, negative control wells were dispensed with 1% DMSO, substrate, and autotaxin instead of the compound, and positive control wells were dispensed with 1% DMSO and substrate.
By pIC50 is commonly meant −log10 of the IC50, conventionally taken in molar units. As for `O=C(O)c1cccc(Cn2c(=O)n(-c3ccccc3)c3cc(Cl)ccc32)c1` [Example 1, 3-((5-chloro-2-oxo-3-phenyl-2,3-dihydro-1H-benzo[d]imidazol-1-yl)methyl)benzoic acid], the pIC50 is 6.00 to 7.00. The same measure for `CCCc1ccc(-n2c(=O)n(Cc3cccc(C(=O)O)c3)c3ccc(Cl)cc32)cc1` [Example 2, 3-((5-chloro-2-oxo-3-(4-propylphenyl)-2,3-dihydro-1H-benzo[d]imidazol-1-yl)methyl)benzoic acid]: 6.00 to 7.00; for `O=C(O)c1cccc(Cn2c(=O)n(-c3ccc(F)cc3)c3cc(Cl)ccc32)c1` [Example 3, 3-((5-chloro-3-(4-fluorophenyl)-2-oxo-2,3-dihydro-1H-benzo[d]imidazol-1-yl)methyl)benzoic acid]: 6.00 to 7.00. As to `O=C(O)c1cccc(Cn2c(=O)n(-c3ccc(C(F)(F)F)cc3)c3cc(Cl)ccc32)c1` [Example 4, 3-((5-chloro-2-oxo-3-(4-(trifluoromethyl)phenyl)-2,3-dihydro-1H-benzo[d]imidazol-1-yl)methyl)benzoic acid], the pIC50 is 6.00 to 7.00. In the case of `COc1ccc(-n2c(=O)n(Cc3cccc(C(=O)O)c3)c3ccc(Cl)cc32)cc1` [Example 5, 3-((5-chloro-3-(4-methoxyphenyl)-2-oxo-2,3-dihydro-1H-benzo[d]imidazol-1-yl)methyl)benzoic acid], the pIC50 was 7.00 to 8.00. The result for `O=C(O)c1cccc(Cn2c(=O)n(-c3ccc(-c4ccc(Cl)cc4)cc3)c3cc(Cl)ccc32)c1` [Example 7, 3-((5-chloro-3-(4′-chloro-[1,1′-biphenyl]-4-yl)-2-oxo-2,3-dihydro-1H-benzo[d]imidazol-1-yl)methyl)benzoic acid] reads 6.00 to 7.00; that for `Cc1ccc(-n2c(=O)n(Cc3cccc(C(=O)O)c3)c3ccc(Cl)cc32)cc1` [Example 8, 3-((5-chloro-2-oxo-3-(p-tolyl)-2,3-dihydro-1H-benzo[d]imidazol-1-yl)methyl)benzoic acid], 6.00 to 7.00; that for `O=C(O)c1cccc(Cn2c(=O)n(-c3ccc4c(c3)OCO4)c3cc(Cl)ccc32)c1` [Example 9, 3-((3-(benzo[d][1,3]dioxol-5-yl)-5-chloro-2-oxo-2,3-dihydro-1H-benzo[d]imidazol-1-yl)methyl)benzoic acid], 6.00 to 7.00.

For the compound `CN(C)c1ccc(-n2c(=O)n(Cc3cccc(C(=O)O)c3)c3ccc(Cl)cc32)cc1` [Example 10, 3-((5-chloro-3-(4-(dimethylamino)phenyl)-2-oxo-2,3-dihydro-1H-benzo[d]imidazol-1-yl)methyl)benzoic acid], the pIC50 is 7.00 to 8.00.

`CC(C)C(=O)Nc1ccc(-n2c(=O)n(Cc3cccc(C(=O)O)c3)c3ccc(Cl)cc32)cc1` [Example 11, 3-((5-chloro-3-(4-isobutyramidophenyl)-2-oxo-2,3-dihydro-1H-benzo[d]imidazol-1-yl)methyl)benzoic acid]: the pIC50 is 6.00 to 7.00.

On to `CC(C)(C)c1ccc(-n2c(=O)n(Cc3cccc(C(=O)O)c3)c3ccc(Cl)cc32)cc1` [Example 12, 3-((3-(4-(tert-butyl)phenyl)-5-chloro-2-oxo-2,3-dihydro-1H-benzo[d]imidazol-1-yl)methyl)benzoic acid], for which the pIC50 was 6.00 to 7.00. The same measure for `O=C(O)c1cccc(Cn2c(=O)n(-c3ccc(O)cc3)c3cc(Cl)ccc32)c1` [Example 13, 3-((5-chloro-3-(4-hydroxyphenyl)-2-oxo-2,3-dihydro-1H-benzo[d]imidazol-1-yl)methyl)benzoic acid]: 6.00 to 7.00; for `CC(C)Oc1ccc(-n2c(=O)n(Cc3cccc(C(=O)O)c3)c3ccc(Cl)cc32)cc1` [Example 14, 3-((5-chloro-3-(4-isopropoxyphenyl)-2-oxo-2,3-dihydro-1H-benzo[d]imidazol-1-yl)methyl)benzoic acid]: 7.00 to 8.00. For `O=C(O)c1cccc(Cn2c(=O)n(-c3ccc(-c4ccccc4)cc3)c3cc(Cl)ccc32)c1` [Example 15, 3-((3-([1,1′-biphenyl]-4-yl)-5-chloro-2-oxo-2,3-dihydro-1H-benzo[d]imidazol-1-yl)methyl)benzoic acid], the pIC50 is 6.00 to 7.00.

As for `CCCCc1ccc(-n2c(=O)n(Cc3cccc(C(=O)O)c3)c3ccc(Cl)cc32)cc1` [Example 16, 3-((3-(4-butylphenyl)-5-chloro-2-oxo-2,3-dihydro-1H-benzo[d]imidazol-1-yl)methyl)benzoic acid], the pIC50 was 6.00 to 7.00. The result for `CC(C)c1ccc(-n2c(=O)n(Cc3cccc(C(=O)O)c3)c3ccc(Cl)cc32)cc1` [Example 17, 3-((5-chloro-3-(4-isopropylphenyl)-2-oxo-2,3-dihydro-1H-benzo[d]imidazol-1-yl)methyl)benzoic acid] reads 6.00 to 7.00; that for `CC(C)(O)c1ccc(-n2c(=O)n(Cc3cccc(C(=O)O)c3)c3ccc(Cl)cc32)cc1` [Example 18, 3-((5-chloro-3-(4-(2-hydroxypropan-2-yl)phenyl)-2-oxo-2,3-dihydro-1H-benzo[d]imidazol-1-yl)methyl)benzoic acid], 7.00 to 8.00; that for `CS(=O)(=O)Nc1ccc(-n2c(=O)n(Cc3cccc(C(=O)O)c3)c3ccc(Cl)cc32)cc1` [Example 19, 3-((5-chloro-3-(4-(methylsulfonamido)phenyl)-2-oxo-2,3-dihydro-1H-benzo[d]imidazol-1-yl)methyl)benzoic acid], 7.00 to 8.00. The result for `CCOc1ccc(-n2c(=O)n(Cc3cccc(C(=O)O)c3)c3ccc(Cl)cc32)cc1` [Example 20, 3-((5-chloro-3-(4-ethoxyphenyl)-2-oxo-2,3-dihydro-1H-benzo[d]imidazol-1-yl)methyl)benzoic acid] reads 7.00 to 8.00; that for `CN(C)C(=O)c1ccc(-n2c(=O)n(Cc3cccc(C(=O)O)c3)c3ccc(Cl)cc32)cc1` [Example 21, 3-((5-chloro-3-(4-(dimethylcarbamoyl)phenyl)-2-oxo-2,3-dihydro-1H-benzo[d]imidazol-1-yl)methyl)benzoic acid], > 8.00; that for `CNC(=O)c1ccc(-n2c(=O)n(Cc3cccc(C(=O)O)c3)c3ccc(Cl)cc32)cc1` [Example 22, 3-((5-chloro-3-(4-(methylcarbamoyl)phenyl)-2-oxo-2,3-dihydro-1H-benzo[d]imidazol-1-yl)methyl)benzoic acid], 7.00 to 8.00. The same measure for `O=C(O)c1cccc(Cn2c(=O)n(-c3ccc(C(=O)NCC(F)(F)F)cc3)c3cc(Cl)ccc32)c1` [Example 23, 3-((5-chloro-2-oxo-3-(4-((2,2,2-trifluoroethyl)carbamoyl)phenyl)-2,3-dihydro-1H-benzo[d]imidazol-1-yl)methyl)benzoic acid]: 6.00 to 7.00; for `O=C(O)c1cccc(Cn2c(=O)n(-c3ccc(N4CCOCC4)cc3)c3c(F)c(Cl)ccc32)c1` [Example 24, 3-((5-chloro-4-fluoro-3-(4-morpholinophenyl)-2-oxo-2,3-dihydro-1H-benzo[d]imidazol-1-yl)methyl)benzoic acid]: 7.00 to 8.00; for `CN(C)c1ccc(-n2c(=O)n(Cc3cccc(C(=O)O)c3)c3ccc(Cl)c(F)c32)cc1` [Example 25, 3-((5-chloro-3-(4-(dimethylamino)phenyl)-4-fluoro-2-oxo-2,3-dihydro-1H-benzo[d]imidazol-1-yl)methyl)benzoic acid]: 7.00 to 8.00.

`O=C(O)c1cccc(Cn2c(=O)n(-c3ccc(NS(=O)(=O)CC(F)(F)F)cc3)c3cc(Cl)ccc32)c1` [Example 26, 3-((5-chloro-2-oxo-3-(4-((2,2,2-trifluoroethyl)sulfonamido)phenyl)-2,3-dihydro-1H-benzo[d]imidazol-1-yl)methyl)benzoic acid]: the pIC50 was 6.00 to 7.00.

Consider `O=C(O)c1cccc(Cn2c(=O)n(-c3ccc(OCC4CCC4)cc3)c3cc(Cl)ccc32)c1` [Example 27, 3-((5-chloro-3-(4-(cyclobutylmethoxy)phenyl)-2-oxo-2,3-dihydro-1H-benzo[d]imidazol-1-yl)methyl)benzoic acid], for which the pIC50 is 6.00 to 7.00. The same measure for `O=C(O)c1cccc(Cn2c(=O)n(-c3ccc(N4CCCCC4=O)cc3)c3cc(Cl)ccc32)c1` [Example 28, 3-((5-chloro-2-oxo-3-(4-(2-oxopiperidin-1-yl)phenyl)-2,3-dihydro-1H-benzo[d]imidazol-1-yl)methyl)benzoic acid]: 7.00 to 8.00. On to `O=C(O)c1cccc(Cn2c(=O)n(-c3ccc(N4CCCC4)cc3)c3cc(Cl)ccc32)c1` [Example 29, 3-((5-chloro-2-oxo-3-(4-(pyrrolidin-1-yl)phenyl)-2,3-dihydro-1H-benzo[d]imidazol-1-yl)methyl)benzoic acid], for which the pIC50 is 7.00 to 8.00. The same measure for `O=C(O)c1cccc(Cn2c(=O)n(-c3ccc(OCC4CCC4)c(F)c3)c3cc(Cl)ccc32)c1` [Example 30, 3-((5-chloro-3-(4-(cyclobutylmethoxy)-3-fluorophenyl)-2-oxo-2,3-dihydro-1H-benzo[d]imidazol-1-yl)methyl)benzoic acid]: 6.00 to 7.00; for `CCCc1ccc(-n2c(=O)n(C3(c4cccc(C(=O)O)c4)CC3)c3ccc(Cl)cc32)cc1` [Example 31, 3-(1-(5-chloro-2-oxo-3-(4-propylphenyl)-2,3-dihydro-1H-benzo[d]imidazol-1-yl)cyclopropyl)benzoic acid]: 7.00 to 8.00. The same measure for `O=C(O)c1ccc(F)c(Cn2c(=O)n(-c3ccccc3)c3cc(Cl)ccc32)c1` [Example 32, 3-((5-chloro-2-oxo-3-phenyl-2,3-dihydro-1H-benzo[d]imidazol-1-yl)methyl)-4-fluorobenzoic acid]: 6.00 to 7.00; for `O=C(O)c1cccc(Cn2c(=O)n(-c3ccccc3)c3cc(Cl)ccc32)c1F` [Example 33, 3-((5-chloro-2-oxo-3-phenyl-2,3-dihydro-1H-benzo[d]imidazol-1-yl)methyl)-2-fluorobenzoic acid]: 6.00 to 7.00.

The record behind these values is patent publication US20260265265A1, “NOVEL BENZIMIDAZOLONE DERIVATIVE COMPOUND AS AUTOTAXIN INHIBITOR” (LG CHEM, LTD., priority 2023, published 2026).
